# Reference: patent publication US12377161B2, “TNF-alpha immunoconjugate therapy for the treatment of brain tumors” (priority 2020, dated 2025)
# “Also recorded” adds a separate entry of the source.
# Legend:
# Type in all cases: in vivo, human
# [1] = system: recurrent glioblastoma; experiment: L19-TNFα treatment of patients with recurrent glioblastoma (tumor perfusion, necrosis, disease status)
# Procedure: Three patients with recurrent glioblastoma were treated with L19-TNFα at a dose level of 10 μg/kg. […] This is surprising considering that the Progression Free Survival (PFS) for recurrent glioblastoma is 1.5 months.
# [2] = system: glioblastoma (WHO grade IV) at first recurrence; experiment: L19-TNF plus lomustine in a patient with glioblastoma at first recurrence, contrast enhanced MRI; settings: one patient; 13 μg/kg L19-TNF iv on Days 1, 3, 5, 22, 24, 26 with 90 mg/m2 lomustine on Day 1; 40 days after baseline image
# Procedure: This example describes the effect of a combination therapy on a patient with recurrent glioblastoma after chemoradiotherapy followed by temozolomide maintenance therapy.
# A patient with glioblastoma (WHO grade IV) at first recurrence, received 90 mg/m2 lomustine (CCNU) on Day 1. Additionally, this patient received 13 μg/kg L19-TNF, by iv infusion, on Days 1, 3, 5, 22, 24 and 26.
# The patient had been pretreated for newly diagnosed glioblastoma with resection and chemoradiotherapy followed by temozolomide maintenance therapy.
# Contrast enhanced MRI was performed initially, before receiving the lomustine and L19-TNF (baseline image; see FIG. 3A) and 40 days after baseline image (FIG. 3B).
# [3] = system: recurrent glioblastoma; experiment: Immunohistochemistry of tumor tissue before and after treatment with L19-TNFα; settings: re-section tissue after treatment vs tissue from first surgery, patient with progressive disease
# [4] = three patients, 10 μg/kg, twenty-four hours after the infusion
substance,measurement,setting,value
L19-TNFα,"disease status, one patient","[1]; 10 μg/kg, one of three patients, after three months",progressive disease
same,"disease status, two patients","[1]; 10 μg/kg, two of three patients, at six months after treatment, with increasing area of necrosis in the tumor region",stable disease
same,overall tumor perfusion,[1]; [4],decrease
same,tumor necrosis,[1]; [4],emerging tumor necrosis
same,glioma lesions (size),"[1]; two patients, FIG. 1A, after two and six cycles",gradually shrink
same,necrotic core of the lesions,"[1]; two patients, FIG. 1A, before vs after treatment",expanding necrotic core
same,tumour size on contrast enhanced MRI,[2],substantially reduced
same,cleaved caspase-3 levels in tumor,[3],increase; also recorded: increased levels
same,tumor-infiltrating CD4 T-cells,[3],significant increase
same,tumor-infiltrating CD8 T-cells,[3],significant increase
